Assay results published in patent US20210030758A1, “TREATMENT OF CANCERS HAVING DRIVING ONCOGENIC MUTATIONS” (G1 Therapeutics, Inc., priority 2018, published 2021).

Assays:
[1] = long-term stability study of solid form; format: physicochemical; conditions: 25° C. and 60% relative humidity
Protocol: (§1) Form B is stable under thermal stress of 60° C. for 7 days. […] In one embodiment isolated Compound IA Form B is stable for at least about 6, 7, 8, 9, 10, 11, 12, 14, 16, 18, 20, 22, or 24 months.

[2] = thermal stress stability of solid form; format: physicochemical; conditions: 60° C. for 7 days
Protocol: as §1

[3] = dynamic vapor sorption experiment; format: physicochemical; conditions: exposure to 90% relative humidity
NSCLC PDX models = assay: NSCLC PDX model panel, tumor growth inhibition; format: in vivo; conditions: for sensitivity of PDX models by genetic alteration: 100 mg/kg
Protocol: NSCLC PDX models (n=60) were treated for up to 28 days with daily oral doses of vehicle or Compound 1 (100 mg/kg). Tumor growth inhibition (TGI) was calculated when tumors reached pre-specified tumor burden or on day 28. Genetic alterations from pre-treated samples were evaluated using FoundationOne. 58% TGI was used as the responder/non-responder cutoff for correlation analysis.

[4] = tested on: EML4-ALK NSCLC PDX tumors (Champions PDX model CTG-0852); format: in vivo; conditions: single agents, oral once daily, after 60 days; Compound I 50 mg/kg, crizotinib 20 mg/kg
[5] = tested on: LC2/ad non-small cell lung cancer cells expressing an oncogenic CCDC6-RET fusion; assay: LC2/ad cell proliferation by CellTiter-Glo; format: cell-based
Protocol: LC2/ad non-small cell lung cancer cells expressing an oncogenic CCDC6-RET fusion were dosed with increasing concentrations of Compound 1, a RET inhibitor selected from pralsetinib (BLU-667) or agerafenib (RXDX-105), or RET inhibitor+300 nM Compound 1. Cell proliferation was measured by CellTiter-Glo after six days.

Q: With `CC(C)N1CCN(c2ccc(Nc3ncc4cc5n(c4n3)C3(CCCCC3)CNC5=O)nc2)CC1` [Compound IA Form B] as the compound, how does the “long-term stability, time stable” value [1] read?
A: Its value is “at least 1 year”.

Q: And the “stability under thermal stress” value [2]?
A: Its value is “stable”.

Q: What about the “solid form after dynamic vapor sorption” value [3] of the same compound?
A: The value was “remained in Form B”.

Q: With `CC(C)N1CCN(c2ccc(Nc3ncc4cc5n(c4n3)C3(CCCCC3)CNC5=O)nc2)CC1` [Compound I] as the compound, how does the “median TGI for adenocarcinoma” value (NSCLC PDX models; NSCLC PDX models, adenocarcinoma, 100 mg/kg daily oral, up to 28 days) read?
A: The value was 73%.

Q: What about the “median TGI for squamous cell carcinoma” value (NSCLC PDX models; NSCLC PDX models, squamous cell carcinoma, 100 mg/kg daily oral, up to 28 days) of the same compound?
A: Its value is 66%.

Q: What about the “sensitivity of PDX models by genetic alteration” value (NSCLC PDX models; models with genetic alterations such as KRAS and EGFR) of the same compound?
A: The value was “increased sensitivity”.

Q: And the “sensitivity of PDX models by genetic alteration” value (NSCLC PDX models; models with genetic alterations such as RB1)?
A: The value was “resistance”.

Q: What about the TGI [4] of the same compound?
A: Its TGI is 87%.

Q: Which “300 nM relative to the IC50 for cellular proliferation” value [5] does the source give for `CO[C@]1(C(=O)N[C@@H](C)c2ccc(-n3cc(F)cn3)nc2)CC[C@H](c2nc(C)cc(Nc3cc(C)[nH]n3)n2)CC1` [pralsetinib, Pralsetinib] here?
A: The value was > 10 fold.
